Measured values reported in PMC6858373 (Scientific Reports, 2019).
Counter-ions that a name gives are not always drawn. Like-named read-outs stand apart in the source and are kept apart here.

How the values were obtained:
[1] = molecular target: T1, FGF14:Nav1.6 C-tail complex (Homo sapiens, UniProt Q92915+Q9UQD0); test: Split-luciferase complementation assay (LCA) in Clone V double stable HEK293 cells; format: cell-based
T1 construct: polymerase chain reaction (PCR) amplification of the FGF14 open reading frame (nt 1–855); C-terminal fragment of Nav1.6 (amino acids 1763–1976) fused with CD4ΔC-tail (amino acids 1–395); expressed in transfected cells
T1 sequence (Q92915 1-252 isoform Q92915-2): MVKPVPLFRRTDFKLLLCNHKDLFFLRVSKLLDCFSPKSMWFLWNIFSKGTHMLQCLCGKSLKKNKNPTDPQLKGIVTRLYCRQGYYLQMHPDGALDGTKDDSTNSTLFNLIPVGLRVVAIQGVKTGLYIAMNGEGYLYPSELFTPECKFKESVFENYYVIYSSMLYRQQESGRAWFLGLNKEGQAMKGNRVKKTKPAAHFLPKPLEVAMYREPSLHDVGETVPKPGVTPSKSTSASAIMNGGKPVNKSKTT
T1 sequence (Q9UQD0 1763-1976 limits assumed): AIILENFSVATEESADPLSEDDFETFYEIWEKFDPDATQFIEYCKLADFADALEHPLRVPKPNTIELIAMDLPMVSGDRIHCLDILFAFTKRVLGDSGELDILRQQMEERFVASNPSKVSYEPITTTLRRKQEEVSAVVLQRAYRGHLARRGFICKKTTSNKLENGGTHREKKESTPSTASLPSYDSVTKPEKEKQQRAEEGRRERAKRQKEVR

[2] = molecular target: full-length P. pyralis luciferase (Photinus pyralis, UniProt P08659, K549A/L550V/N119G/N50D/S548I); format: cell-based
Chain of full-length P. pyralis luciferase (P08659 whole entry N50D/N119G/S548I/K549A/L550V, looked up): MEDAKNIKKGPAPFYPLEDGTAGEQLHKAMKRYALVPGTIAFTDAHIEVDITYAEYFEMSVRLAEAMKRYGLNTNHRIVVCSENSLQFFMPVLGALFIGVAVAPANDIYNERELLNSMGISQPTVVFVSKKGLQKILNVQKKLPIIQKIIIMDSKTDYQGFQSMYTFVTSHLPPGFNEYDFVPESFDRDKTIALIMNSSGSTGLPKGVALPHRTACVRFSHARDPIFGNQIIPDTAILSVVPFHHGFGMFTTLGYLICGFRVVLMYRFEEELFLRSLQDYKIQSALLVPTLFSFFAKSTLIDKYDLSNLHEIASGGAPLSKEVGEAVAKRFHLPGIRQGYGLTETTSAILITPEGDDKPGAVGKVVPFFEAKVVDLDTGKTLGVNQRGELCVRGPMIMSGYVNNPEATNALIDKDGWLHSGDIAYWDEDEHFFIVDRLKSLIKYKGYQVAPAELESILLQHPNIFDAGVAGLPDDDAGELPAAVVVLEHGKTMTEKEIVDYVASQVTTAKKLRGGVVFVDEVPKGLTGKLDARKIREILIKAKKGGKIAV

[3] = in vitro; details: human
[4] = system: Clone V cells; test: CellTiter Blue (CTB) cell viability counter-screen; details: CC_NCI screening; normalized to on-plate 0.3% DMSO controls
[5] = system: Clone V cells; details: human
[6] = CC_NCI screening, biological replicate Set 1, normalized to on-plate 0.3% DMSO controls
[7] = CC_NCI screening, biological replicate Set 1, normalized to on-plate 0.3% DMSO controls (n=16 per plate)
[8] = CC_NCI screening, biological replicate Set 2, normalized to on-plate 0.3% DMSO controls
[9] = CC_NCI screening, biological replicate Set 2, normalized to on-plate 0.3% DMSO controls (n=16 per plate)
[10] = average of Set 1 and Set 2, normalized to 0.3% DMSO controls
[11] = CC_NCI screening, normalized to on-plate 0.3% DMSO controls

CC(=O)O[C@@]12CO[C@@H]1C[C@H](O)[C@@]1(C)C(=O)[C@H](O)C3=C(C)[C@@H](OC(=O)[C@H](O)[C@@H](NC(=O)OC(C)(C)C)c4ccccc4)C[C@@](O)([C@@H](OC(=O)c4ccccc4)[C@H]21)C3(C)C [Docetaxel]
Split Luciferase Assay Z-score Set 1 [1, 6]: 6.00 | Split Luciferase Assay % Lum Set 1 [1, 7]: 174.26% | Split Luciferase Assay Z-score Set 2 [1, 8]: 4.48 | Split Luciferase Assay %Lum Set 2 [1, 9]: 155.01% | Split Luciferase Assay %Lum Avg [1, 10]: 164.63% | Luciferase Assay % Lum (full-length luciferase counter-screen) [2, 11]: 101.54% | Luciferase Assay Z-score (full-length luciferase counter-screen) [2, 11]: 0.20 | viability at 16 h, 30 µM ([3]; Clone V cells): 107% | Toxicity Assay Z-score (CTB cell viability) [4]: 0.98

CO[C@H]1C[C@@H]2CC[C@@H](C)[C@@](O)(O2)C(=O)C(=O)N2CCCC[C@H]2C(=O)O[C@H]([C@H](C)C[C@@H]2CC[C@@H](O)[C@H](OC)C2)CC(=O)[C@H](C)/C=C(\C)[C@@H](O)[C@@H](OC)C(=O)[C@H](C)C[C@H](C)/C=C/C=C/C=C/1C [Sirolimus]
Split Luciferase Assay Z-score Set 1 [1, 6]: 1.26 | Split Luciferase Assay % Lum Set 1 [1, 7]: 115.56% | Split Luciferase Assay Z-score Set 2 [1, 8]: 0.41 | Split Luciferase Assay %Lum Set 2 [1, 9]: 105.07% | Split Luciferase Assay %Lum Avg [1, 10]: 110.32% | Luciferase Assay % Lum (full-length luciferase counter-screen) [2, 11]: 80.58% | Luciferase Assay Z-score (full-length luciferase counter-screen) [2, 11]: -2.49 | viability at 16 h, 30 µM ([3]; Clone V cells): 103% | Toxicity Assay Z-score (CTB cell viability) [4]: 0.38

CCCCCCCCc1ccc(CCC(N)(CO)CO)cc1 [Fingolimod]
Split Luciferase Assay Z-score Set 1 [1, 6]: -0.06 | Split Luciferase Assay % Lum Set 1 [1, 7]: 99.25% | Split Luciferase Assay Z-score Set 2 [1, 8]: 0.58 | Split Luciferase Assay %Lum Set 2 [1, 9]: 107.15% | Split Luciferase Assay %Lum Avg [1, 10]: 103.20% | Luciferase Assay % Lum (full-length luciferase counter-screen) [2, 11]: 94.97% | Luciferase Assay Z-score (full-length luciferase counter-screen) [2, 11]: -0.64 | viability at 16 h, 30 µM ([3]; Clone V cells): 110% | Toxicity Assay Z-score (CTB cell viability) [4]: 1.42

Oc1c2ccccc2c2c3c(cccc13)N=N2 [SP600125]
Split Luciferase Assay Z-score Set 1 [1, 6]: 0.99 | Split Luciferase Assay % Lum Set 1 [1, 7]: 112.30% | Split Luciferase Assay Z-score Set 2 [1, 8]: -1.20 | Split Luciferase Assay %Lum Set 2 [1, 9]: 85.31% | Split Luciferase Assay %Lum Avg [1, 10]: 98.80% | Luciferase Assay % Lum (full-length luciferase counter-screen) [2, 11]: 110.92% | Luciferase Assay Z-score (full-length luciferase counter-screen) [2, 11]: 1.40 | viability at 16 h, 30 µM ([3]; Clone V cells): 109% | Toxicity Assay Z-score (CTB cell viability) [4]: 1.21

CS(=O)(=O)c1ccc(C2=C(c3ccccc3)C(=O)OC2)cc1 [ROFECOXIB]
Split Luciferase Assay Z-score Set 1 [1, 6]: 1.78 | Split Luciferase Assay % Lum Set 1 [1, 7]: 122.08% | Split Luciferase Assay %Lum Avg [1, 10]: 87.57% | Luciferase Assay % Lum (full-length luciferase counter-screen) [2, 11]: 102.66% | Luciferase Assay Z-score (full-length luciferase counter-screen) [2, 11]: 0.34 | viability at 16 h, 30 µM ([3]; Clone V cells): 109% | Toxicity Assay Z-score (CTB cell viability) [4]: 1.28

C[C@@H](Oc1cc(-c2cnn(C3CCNCC3)c2)cnc1N)c1c(Cl)ccc(F)c1Cl [Crizotinib, reference compound]
Z-score (LCA primary screening) ([1]; 30 µM, 384-well, average of primary screening (n = 2), vs on-plate 0.3% DMSO): −5.29 | dose-response behavior of repurchased compounds ([1]; 10-point dose response 0.25-50 µM, Clone V cells): purely inhibitory effects | Split Luciferase Assay Z-score Set 1 [1, 6]: -5.24 | Split Luciferase Assay % Lum Set 1 [1, 7]: 35.11% | Split Luciferase Assay Z-score Set 2 [1, 8]: -5.34 | Split Luciferase Assay %Lum Set 2 [1, 9]: 34.33% | IMin (% Luminescence) ([1]; antagonists, Clone V cells, 384-well, normalized to DMSO): 34.72 % Luminescence | Split Luciferase Assay %Lum Avg [1, 10]: 34.72% | action toward the FGF14:Nav1.6 C-tail interaction ([1]; dose-dependency validation using fresh compound samples): acted as antagonists | IC50 ([1]; estimated, 8-point dose response 0.25-30 µM, n = 4 per concentration, library compounds, read-out: IC50): 12.2 µM | IC50 ([1]; repurchased compounds, 10-point dose response 0.25-50 µM, n = 8 per concentration, Clone V cells, 384-well, read-out: in-cell IC50): 15.5 µM | Luciferase Assay % Lum (full-length luciferase counter-screen) [2, 11]: 91.93% | Luciferase Assay Z-score (full-length luciferase counter-screen) [2, 11]: -1.03 | viability at 16 h, 30 µM ([3]; Clone V cells): 102% | Toxicity Assay Z-score (CTB cell viability) [4]: 0.27

Clc1ccc(C(c2ccccc2Cl)C(Cl)Cl)cc1 (stereo not shown) [Mitotane]
Split Luciferase Assay Z-score Set 1 [1, 6]: -6.12 | Split Luciferase Assay % Lum Set 1 [1, 7]: 24.24% | Split Luciferase Assay Z-score Set 2 [1, 8]: -5.17 | Split Luciferase Assay %Lum Set 2 [1, 9]: 36.41% | Split Luciferase Assay %Lum Avg [1, 10]: 30.33% | Luciferase Assay % Lum (full-length luciferase counter-screen) [2, 11]: 54.78% | Luciferase Assay Z-score (full-length luciferase counter-screen) [2, 11]: -5.79 | Toxicity Assay Z-score (CTB cell viability) ([5]; 16 h, 30 µM): -0.85 | viability at 16 h, 30 µM [3]: 93.9%

Cc1cc(Nc2cc(N3CCN(C)CC3)nc(Sc3ccc(NC(=O)C4CC4)cc3)n2)[nH]n1 [TOZASERTIB]
Split Luciferase Assay Z-score Set 1 [1, 6]: -1.55 | Split Luciferase Assay % Lum Set 1 [1, 7]: 80.77% | Split Luciferase Assay Z-score Set 2 [1, 8]: -6.02 | Split Luciferase Assay %Lum Set 2 [1, 9]: 26.01% | Split Luciferase Assay %Lum Avg [1, 10]: 53.39% | Luciferase Assay % Lum (full-length luciferase counter-screen) [2, 11]: 73.72% | Luciferase Assay Z-score (full-length luciferase counter-screen) [2, 11]: -3.37 | viability at 16 h, 30 µM ([3]; Clone V cells): 106% | Toxicity Assay Z-score (CTB cell viability) [4]: 0.86

C1CN1c1nc(N2CC2)nc(N2CC2)n1 [Triethylenemelamine]
Split Luciferase Assay % Lum Set 1 [1]: 118.82% | Split Luciferase Assay %Lum Avg [1]: 117.67% | Split Luciferase Assay %Lum Set 2 [1]: 116.51% | Split Luciferase Assay Z-score Set 1 [1]: 1.52 | Split Luciferase Assay Z-score Set 2 [1]: 1.34 | Luciferase Assay % Lum (full-length luciferase counter-screen) [2]: 108.47% | Luciferase Assay Z-score (full-length luciferase counter-screen) [2]: 1.08 | Toxicity Assay Z-score (CTB cell viability) [5]: 0.82 | viability [3]: 106%

Nc1ccccc1NC(=O)c1ccc(CNc2nccc(-c3cccnc3)n2)cc1 [MGCD0103]
Split Luciferase Assay Z-score Set 1 [1, 6]: -1.82 | Split Luciferase Assay % Lum Set 1 [1, 7]: 77.51% | Split Luciferase Assay Z-score Set 2 [1, 8]: -1.96 | Split Luciferase Assay %Lum Set 2 [1, 9]: 75.94% | Split Luciferase Assay %Lum Avg [1, 10]: 76.73% | Luciferase Assay % Lum (full-length luciferase counter-screen) [2, 11]: 90.12% | Luciferase Assay Z-score (full-length luciferase counter-screen) [2, 11]: -1.27 | viability at 16 h, 30 µM ([3]; Clone V cells): 104% | Toxicity Assay Z-score (CTB cell viability) [4]: 0.52

CCCCCOC(=O)Nc1nc(=O)n([C@@H]2O[C@H](C)[C@@H](O)[C@H]2O)cc1F [Capecitabine]
Split Luciferase Assay Z-score Set 1 [1, 6]: 1.96 | Split Luciferase Assay % Lum Set 1 [1, 7]: 124.26% | Split Luciferase Assay Z-score Set 2 [1, 8]: 1.17 | Split Luciferase Assay %Lum Set 2 [1, 9]: 114.43% | Split Luciferase Assay %Lum Avg [1, 10]: 119.35% | Luciferase Assay % Lum (full-length luciferase counter-screen) [2, 11]: 100.06% | Luciferase Assay Z-score (full-length luciferase counter-screen) [2, 11]: 0.01 | Toxicity Assay Z-score (CTB cell viability) ([5]; 16 h, 30 µM): 1.00 | viability at 16 h, 30 µM ([3]; Clone V cells): 107%

CS(=O)(=O)OCCCCOS(C)(=O)=O [Busulfan]
Split Luciferase Assay Z-score Set 1 [1, 6]: -0.50 | Split Luciferase Assay % Lum Set 1 [1, 7]: 93.82% | Split Luciferase Assay Z-score Set 2 [1, 8]: 1.01 | Split Luciferase Assay %Lum Set 2 [1, 9]: 112.35% | Split Luciferase Assay %Lum Avg [1, 10]: 103.09% | Luciferase Assay % Lum (full-length luciferase counter-screen) [2, 11]: 97.98% | Luciferase Assay Z-score (full-length luciferase counter-screen) [2, 11]: -0.26 | Toxicity Assay Z-score (CTB cell viability) ([5]; 16 h, 30 µM): 0.92 | viability at 16 h, 30 µM ([3]; Clone V cells): 107%

Nc1ccn([C@@H]2O[C@H](CO)[C@@H](O)C2(F)F)c(=O)n1 [Gemcitabine hydrochloride]
Split Luciferase Assay Z-score Set 1 [1, 6]: 0.29 | Split Luciferase Assay % Lum Set 1 [1, 7]: 103.60% | Split Luciferase Assay Z-score Set 2 [1, 8]: -0.43 | Split Luciferase Assay %Lum Set 2 [1, 9]: 94.67% | Split Luciferase Assay %Lum Avg [1, 10]: 99.13% | Luciferase Assay % Lum (full-length luciferase counter-screen) [2, 11]: 102.42% | Luciferase Assay Z-score (full-length luciferase counter-screen) [2, 11]: 0.31 | Toxicity Assay Z-score (CTB cell viability) ([5]; 16 h, 30 µM): 2.40 | viability at 16 h, 30 µM ([3]; Clone V cells): 117%

NC(=O)c1ccc(N(C(N)=O)c2c(F)cccc2F)nc1-c1ccc(F)cc1F [VX-702]
Split Luciferase Assay Z-score Set 1 [1, 6]: 1.35 | Split Luciferase Assay % Lum Set 1 [1, 7]: 116.65% | Split Luciferase Assay Z-score Set 2 [1, 8]: -2.63 | Split Luciferase Assay %Lum Set 2 [1, 9]: 67.62% | Split Luciferase Assay %Lum Avg [1, 10]: 92.13% | Luciferase Assay % Lum (full-length luciferase counter-screen) [2, 11]: 93.91% | Luciferase Assay Z-score (full-length luciferase counter-screen) [2, 11]: -0.78 | Toxicity Assay Z-score (CTB cell viability) ([5]; 16 h, 30 µM): 0.75 | viability at 16 h, 30 µM [3]: 105%

O=c1[nH]cc(F)c(=O)[nH]1 [Fluorouracil]
Split Luciferase Assay Z-score Set 1 [1, 6]: 0.64 | Split Luciferase Assay % Lum Set 1 [1, 7]: 107.95% | Split Luciferase Assay Z-score Set 2 [1, 8]: 1.34 | Split Luciferase Assay %Lum Set 2 [1, 9]: 116.51% | Split Luciferase Assay %Lum Avg [1, 10]: 112.23% | Luciferase Assay % Lum (full-length luciferase counter-screen) [2, 11]: 111.63% | Luciferase Assay Z-score (full-length luciferase counter-screen) [2, 11]: 1.49 | Toxicity Assay Z-score (CTB cell viability) ([5]; 16 h, 30 µM): 0.61 | viability at 16 h, 30 µM [3]: 104%
